From patent US11162951B2, “Membrane-impermeant fluorogenic chromophores” (PARIS SCIENCES ET LETTRES, priority 2017, dated 2021) come the findings set out here.

Data set [1] concerns the target T1, FAST (variant of the photoactive yellow protein (PYP), SEQ ID NO: 3) (Halorhodospira halophila, UniProt P16113, C69G/D97P/F96I/M100R/Q99S/T101G/T95M/Y94W/Y98T).
T1 construct: His tag; made in house; host or cells: Rosetta(DE3)pLysS E. coli
The data set can be described thus: Physico-chemical (absorption/fluorescence) properties of FAST:fluorogen complexes. Format: physicochemical. To be noted: for Brightness (ε×ϕ) / ε, molar absorption coefficient at λabs / λabs, wavelength of maximal absorption / λem, wavelength of maximal emission / ϕ, fluorescence quantum yield: FAST:fluorogen complex in PBS pH 7.4. As for the experimental part:
In an embodiment, the fluorescence quantum yields after one-photon excitation ϕ are calculated from the relation: […]
Methods for measuring the brightness are well-known in the art. Brightness corresponds to the fluorescence output per emitter and is the product of the molar absorption coefficient (at the excitation wavelength) and the fluorescence quantum yield.
(§1) His-tagged FAST was expressed in Rosetta(DE3)pLysS E. coli (New England Biolabs). Cells were grown at 37° C. in Lysogeny Broth (LB) medium to OD600 nm 0.6. Expression was induced for 4 h by adding isopropyl β-D-1-thiogalactopyranoside (IPTG) to a final concentration of 1 mM. Cells were harvested by centrifugation (6,000×g for 15 min at 4° C.) and frozen. The cell pellet was resuspended in lysis buffer (phosphate buffer 50 mM, NaCl 150 mM, MgCl2 2.5 mM, protease inhibitor, DNase, pH 7.4) and sonicated (5 min at 20% of amplitude). The lysate was incubated for 2 h at 4° C. to allow DNA digestion by DNase. Cellular fragments were removed by centrifugation (15,000×g for 1 h at 4° C.). The supernatant was incubated overnight at 4° C. under gentle agitation with Ni-NTA agarose beads in phosphate buffered saline (PBS) (sodium phosphate 50 mM, NaCl 150 mM, pH 7.4) complemented with 10 mM Imidazole. Beads were washed with 20 volumes of PBS containing 20 mM Imidazole, and with 5 volumes of PBS complemented with 40 mM Imidazole. His-tagged proteins were eluted with 5 volumes of PBS complemented with 0.5 M Imidazole, followed by dialysis with PBS.
(§2) UV/Vis absorption spectra were recorded in 1 cm×1 cm quartz cuvettes (Hellma) on a diode array UV/Vis spectrophotometer (Evolution array, Thermo Scientific). Corrected fluorescence spectra upon one-photon excitation were recorded with a Photon Technology International QuantaMaster QM-1 spectrofluorimeter (PTI, Monmouth Junction, N.J.) equipped with a Peltier cell holder (TLC50, Quantum Northwest, Shoreline, Wash.).
(§3) Physico-chemical properties of FAST:fluorogen complexes in PBS pH 7.4 are described in Table 2 below: λabs, wavelength of maximal absorption; λem, wavelength of maximal emission; ε, molar absorption coefficient at λabs; ϕ, fluorescence quantum yield; KD affinity constant. The brightness is equal to ε×ϕ.

For data set [2], the target named is T1, FAST (variant of the photoactive yellow protein (PYP), SEQ ID NO: 3). Description: biochemical. The format is binding. As to conditions: for Kd: KD affinity constant, FAST:fluorogen complex in PBS pH 7.4. As to the method:
In an embodiment, the thermodynamic dissociation constant KD is determined by spectrofluorometric titration as described in the Examples.
as §1, §2, §3

Data set [3] concerns HeLa cells expressing FAST fused to mCherry in the cytoplasm. Description: Cell exclusion after prolonged exposure, confocal imaging. Format: cell-based. As to conditions: 5 μM, two hours, cytoplasmic FAST-mCherry. As for the experimental part: (§4) The plasmid pAG211 for mammalian expression of FAST (fused also to mCherry as additional transfection marker) at the outer plasma membrane was obtained by inserting the sequence coding the protein of interest within the pDisplay plasmid (ThermoFisher) using Sal I and Bgl II restriction sites. The plasmid pAG96 for cytoplasmic expression of FAST fused to mCherry was previously reported (Plamont, M.-A. et al., 2016).
(§5) HeLa cells were cultured in DMEM supplemented with phenol red, Glutamax I, 10% (vol/vol) fetal calf serum (FCS), and 1% penicillin-streptomycin at 37° C. within a 5% CO2 atmosphere. For microscopic imaging, cells were seeded in μDish or μSlide IBIDI (Biovalley) coated with poly-L-lysine. Cells were transiently transfected using Genejuice (Merck) according to the manufacturer's protocol. Before imaging, cells were washed with PBS, and treated with DMEM media (without serum and phenol red) containing the fluorogens at the indicated concentration. Cells were imaged directly without washing.
(§6) Confocal micrographs were acquired on a Zeiss LSM 710 Laser Scanning Microscope equipped with a Plan Apochromat 63×/1.4 NA oil immersion objective. ZEN software was used to collect the data. Images were analyzed with Image J. Flow cytometry analyses were performed on an Accuri C6 cytometer (BD Biosciences).
Cell exclusion after prolonged exposure was then evaluated. […]

Data set [4] deals with HeLa cells displaying FAST on the extracellular side (Ig κ-chain leader / PDGFR transmembrane domain). Description: Selective labeling of cell-surface FAST-tagged proteins, confocal imaging. The format is cell-based. To be noted: for Localisation of fluorescent labeling of FAST-tagged protein: 5 min. As to the method: as §4, §5, §6
Next, the use of HBRAA-3E for the selective labeling of cell-surface FAST-tagged proteins was studied. A polypeptide was engineered comprising a FAST in between a murine Ig κ-chain leader sequence and the platelet derived growth factor receptor (PDGFR) transmembrane domain. FAST was fused at the […] of the PDGFR transmembrane domain, which anchors the protein to the plasma membrane. The resulting FAST-tagged protein was expressed transiently in HeLa cells.

Each structure is given as a SMILES string. Several values for one entry are separate records, joined by “and”; a condition that tells them apart may be missing. Equal entries are not always repeated. Entries after “also recorded” stand apart in the source; their conditions may differ.

T1 sequence (P16113 whole entry C69G/Y94W/T95M/F96I/D97P/Y98T/Q99S/M100R/T101G): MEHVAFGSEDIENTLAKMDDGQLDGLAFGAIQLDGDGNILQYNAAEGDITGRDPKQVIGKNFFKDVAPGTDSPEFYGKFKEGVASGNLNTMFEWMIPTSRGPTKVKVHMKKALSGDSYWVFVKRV

For the compound `O=C1NC(=S)S/C1=C\c1ccc(O)cc1` [HBR, 4-hydroxybenzylidene rhodanine, reference compound], in data set [1], the “Brightness (ε×ϕ)” value is listed as 4,000; the “ε, molar absorption coefficient at λabs” value came out at 44 mM⁻¹ cm⁻¹; the “λabs, wavelength of maximal absorption” value was found to be 467 nm; the “λem, wavelength of maximal emission” value was found to be 527 nm. Moreover, in data set [1], the “ϕ, fluorescence quantum yield” value is 9%.
As for `O=C(O)CN1C(=O)/C(=C/c2ccc(O)cc2)SC1=S` [HBRAA, (Z)-2-(5-(4-hydroxybenzylidene)-4-oxo-2-thioxothiazolidin-3-yl)acetic acid], in data set [2], the “Affinity for FAST, in words” value is “almost no affinity for FAST” and the equilibrium dissociation constant (Kd) was greater than 20 µM. In data set [1], the “λabs, wavelength of maximal absorption” value came to 488 nm and the “λem, wavelength of maximal emission” value is 555 nm.
For `Cc1cc(/C=C2\SC(=S)N(CC(=O)O)C2=O)c(C)cc1O` [HBRAA-2,5DM, (Z)-2-(5-(4-hydroxy-2,5-dimethylbenzylidene)-4-oxo-2-thioxothiazolidin-3-yl)acetic acid], in data set [2], the “Affinity for FAST, in words” value was “none of the complexes formed by di-substituted compounds HBRAA-2,5DM, HBRAA-3,5DM and HBRAA-3,5DMO has an affinity higher than the one of HBRAA-3M”; the equilibrium dissociation constant (Kd) stood at 5.4 µM. For the same compound, in data set [1], the “Brightness (ε×ϕ)” value is reported as 3,200; the “ε, molar absorption coefficient at λabs” value came out at 63 mM⁻¹ cm⁻¹; the “λabs, wavelength of maximal absorption” value was determined as 519 nm; the “λem, wavelength of maximal emission” value was 566 nm. Also, the “ϕ, fluorescence quantum yield” value in data set [1] is 5%.
With `COc1cc(O)ccc1/C=C1\SC(=S)N(CC(=O)O)C1=O` [HBRAA-2OM, (Z)-2-(5-(4-hydroxy-2-methoxybenzylidene)-4-oxo-2-thioxothiazolidin-3-yl)acetic acid], in data set [2], the dissociation constant (Kd) was 0.5 µM and 0.48 µM. Also, in data set [1], the “Brightness (ε×ϕ)” value is reported as “about 2,800”; the “ε, molar absorption coefficient at λabs” value was found to be 55 mM⁻¹ cm⁻¹; the “λabs, wavelength of maximal absorption” value came out at 497 nm; the “λem, wavelength of maximal emission” value is reported as 537 nm. Besides, in data set [1], the “ϕ, fluorescence quantum yield” value is recorded as 5%. Further, the “Brightness (ε×ϕ)” value in data set [1] (listed as FAST:HBRAA-2OM) is given as 2,800.
With `Cc1cc(/C=C2\SC(=S)N(CC(=O)O)C2=O)cc(C)c1O` [HBRAA-3,5DM, (Z)-2-(5-(4-hydroxy-3,5-dimethylbenzylidene)-4-oxo-2-thioxothiazolidin-3-yl)acetic acid], in data set [2], the “Affinity for FAST, in words” value is “none of the complexes formed by di-substituted compounds HBRAA-2,5DM, HBRAA-3,5DM and HBRAA-3,5DMO has an affinity higher than the one of HBRAA-3M”; the Kd was greater than 20 µM. In data set [1], the “λabs, wavelength of maximal absorption” value turned out to be 522 nm; the “λem, wavelength of maximal emission” value is given as 571 nm; the “ϕ, fluorescence quantum yield” value came out at 4%.
For `COc1cc(/C=C2\SC(=S)N(CC(=O)O)C2=O)cc(OC)c1O` [HBRAA-3,5DOM, (Z)-2-(5-(4-hydroxy-3,5-dimethoxybenzylidene)-4-oxo-2-thioxothiazolidin-3-yl)acetic acid], in data set [2], the “Affinity for FAST, in words” value is “none of the complexes formed by di-substituted compounds HBRAA-2,5DM, HBRAA-3,5DM and HBRAA-3,5DMO has an affinity higher than the one of HBRAA-3M”; the dissociation constant Kd is greater than 20 µM. In addition, in data set [1], the “λabs, wavelength of maximal absorption” value came out at 532 nm; the “λem, wavelength of maximal emission” value is reported as 606 nm; the “ϕ, fluorescence quantum yield” value came to 1%.
Turning to `CCc1cc(/C=C2\SC(=S)N(CC(=O)O)C2=O)ccc1O` [HBRAA-3E, (Z)-2-(5-(3-ethyl-4-hydroxybenzylidene)-4-oxo-2-thioxothiazolidin-3-yl)acetic acid], the equilibrium dissociation constant (Kd) in data set [2] is ~1.3 µM and 1.3 µM. In addition, in data set [1], the “Red shift in absorption compared to FAST:HMBR” value is 25 nm; the “Red shift in emission compared to FAST:HMBR” value turned out to be 20 nm; the “Brightness (ε×ϕ)” value is “about 4,900”; the “ε, molar absorption coefficient at λabs” value stood at 61 mM⁻¹ cm⁻¹. Also, in data set [1], the “λabs, wavelength of maximal absorption” value is reported as 505 nm; the “λem, wavelength of maximal emission” value turned out to be 559 nm; the “ϕ, fluorescence quantum yield” value was determined as 8%. Moreover, the “Brightness (ε×ϕ)” value in data set [1] (listed as FAST:HBRAA-3E) was 4,900. In data set [3], the “Intracellular labeling (cell exclusion)” value is reported as “no intracellular labeling”. Besides, in data set [4] (5 μM), the “Localisation of fluorescent labeling of FAST-tagged protein” value is listed as “fluorescent labeling only at the plasma membrane; also recorded: revealed only surface-exposed proteins”. Moreover, the “Intracellular labeling upon longer incubation” value in data set [4] (5 μM, 1 h) is reported as “no intracellular labeling”.
Compound `Cc1cc(/C=C2\SC(=S)N(CC(=O)O)C2=O)ccc1O` [HBRAA-3M, (Z)-2-(5-(4-hydroxy-3-methylbenzylidene)-4-oxo-2-thioxothiazolidin-3-yl)acetic acid] yielded a Kd in data set [2] of 6.4 µM. Further, in data set [1], the “Brightness (ε×ϕ)” value is on record as 3,400; the “ε, molar absorption coefficient at λabs” value is 56 mM⁻¹ cm⁻¹; the “λabs, wavelength of maximal absorption” value is 502 nm; the “λem, wavelength of maximal emission” value turned out to be 557 nm. In addition, in data set [1], the “ϕ, fluorescence quantum yield” value was 6%. Moreover, the “Brightness compared with FAST:HMBR” value in data set [1] (in words) is “three-fold lower brightness”.
On to `CCOc1cc(/C=C2\SC(=S)N(CC(=O)O)C2=O)ccc1O` [HBRAA-3OE, (Z)-2-(5-(4-hydroxy-3-ethoxybenzylidene)-4-oxo-2-thioxothiazolidin-3-yl)acetic acid], for which, in data set [2], binding was put at a Kd of 1.7 µM. Moreover, in data set [1], the “Brightness (ε×ϕ)” value is on record as “about 3,700”; the “ε, molar absorption coefficient at λabs” value was found to be 62 mM⁻¹ cm⁻¹; the “λabs, wavelength of maximal absorption” value came out at 525 nm; the “λem, wavelength of maximal emission” value is 575 nm. Besides, the “ϕ, fluorescence quantum yield” value in data set [1] is 6%. Besides, the “Brightness (ε×ϕ)” value in data set [1] (listed as FAST:HBRAA-3OE) was 3,700. Besides, the “Shift of absorption and emission of the FAST complex compared with HBRAA-3E” value in data set [1] (in words) was “further red-shifted the absorption and the emission”.
Take `COc1cc(/C=C2\SC(=S)N(CC(=O)O)C2=O)ccc1O` [HBRAA-3OM, (Z)-2-(5-(4-hydroxy-3-methoxybenzylidene)-4-oxo-2-thioxothiazolidin-3-yl)acetic acid]: in data set [2], the “Affinity for FAST, in words” value is “almost no affinity with FAST” and the Kd was greater than 20 µM. Besides, in data set [1], the “λabs, wavelength of maximal absorption” value was 520 nm; the “λem, wavelength of maximal emission” value was 572 nm; the “ϕ, fluorescence quantum yield” value turned out to be 2%.
For `Cc1cc(/C=C2\SC(=S)NC2=O)ccc1O` [HMBR, 4-hydroxy-3-methylbenzylidene rhodanine, reference compound], in data set [4] (5 μM), the “Localisation of fluorescent labeling of FAST-tagged protein” value is “labeling of FAST-tagged proteins both at the membrane and within the secretory pathway; also recorded: revealed membrane and intracellular proteins”. The “Labeling after subsequent addition to cells pre-treated 1 h with HBRAA-3E” value in data set [4] (immediate imaging (<10 s)) is “revealed proteins within the secretory pathway”.

As usually defined, the Kd is the equilibrium constant for the complex coming apart. A lower Kd goes with a tighter complex.
